Values after ≈ are worked out from the molar mass of the structure shown. Values joined by “and” are separate entries in the source; they are usually repeats but may differ in a detail not shown here. Equal values may be shown once.
What was measured:
[1] = system: 769-P (renal cell carcinoma); test: MTT antiproliferative activity assay; type: cell-based, human; details: for decrease in viability: 769-P; for TI after 24h / TI after 48h: IC50 WS1 / IC50 769-P
Description: (§1) Cancer cell lines originating from different organs, i.e., AGS (stomach—gastric adenocarcinoma), HepG2 (hepatocellular carcinoma), Du145, PC3 (prostate cancer), 769-P (renal cell carcinoma) and physiology cell line WS1 (fibroblasts), were purchased from ATCC. The cell cultures were carried out in an appropriate medium (DMEM or MEM) containing 10% heat-inactivated FBS with penicillin (100 U/mL) and streptomycin (100 U/mL). The cells were kept in a humidified incubator at 37 °C and 5% CO2 and passaged three times before experimenting.
(§2) The antiproliferative properties test for each cancer line was performed in 96-well plates, in which cells with a density of 2 × 10^4 were seeded in 100 µL of medium containing 10% FBS. After 24 h of allowing the cells to attach, the wells were washed with DPBS (Dulbecco’s phosphate-buffered saline) solution and the cells were incubated in fresh medium w/o FBS containing 1 µM, 10 µM, 50 µM, 200 µM or 500 µM of the tested compounds for 24 and 48 h. All substances were first dissolved in DMSO to prepare stock solutions that were then diluted in the medium to obtain a maximum of 0.1% w/v DMSO in the final solution. Each concentration was tested in triplicate. DMSO at a concentration of 0.1% in the medium was also used as a negative control. The antiproliferative activity of the compounds was tested using the MTT test. After each incubation time, the medium containing the test compounds and the negative control was removed, the cells were washed with DPBS solution, and then 100 µL of FBS-free and antibiotic-free fresh medium containing 0.5 mg/mL MTT was added to each well. The plates were incubated for 3 h in an incubator at 37 °C and 5% CO2. After incubation, the medium was removed, the cells were washed with 100 µL of PBS, and 100 µL of DMSO was added to each well to dissolve the purple formazan. The plate was shaken for 3 min and the absorbance was read at 570 nm (BioTek Synergy H1 microplate reader). Cell viability was calculated from the mean of the OD readings. Based on the dose–response curve, IC50 values were calculated (MS Excel). […] Therapeutic index (TI) results were calculated as the ratio of the IC50 of physiological cells to the IC50 of tumor cells.

PC3 (prostate cancer) = test: MTT antiproliferative activity assay; type: cell-based, human; details: for TI after 24h: IC50 WS1 / IC50 PC3
Description: as §1, §2

WS1 (fibroblasts) = test: MTT antiproliferative activity assay; type: cell-based, human; details: for concentration at which a statistically significant decrease in viability was observed: tested 1–500 µM
Description: as §1, §2

[2] = system: AGS (gastric adenocarcinoma); test: MTT antiproliferative activity assay; type: cell-based, human; details: for decrease in viability: AGS; for TI after 24h / TI after 48h: IC50 WS1 / IC50 AGS
Description: as §1, §2

Du145 (prostate cancer) = test: MTT antiproliferative activity assay; type: cell-based, human; details: for concentration at which a statistically significant decrease in viability was observed: tested 1–500 µM
Description: as §1, §2

[3] = system: HepG2 (hepatocellular carcinoma); test: MTT antiproliferative activity assay; type: cell-based, human
Description: as §1, §2

[4] = system: Candida parapsilosis ATCC 22019; test: Broth microdilution antimicrobial activity; type: cell-based; details: for MFC / MIC: Lodderomyces parapsilosis; for MFC: ATCC22019, read-out: MFC; for MIC: ATCC22019, read-out: MIC
Description: (§3) Reference strains of microorganisms that came from American Type Culture Collection (ATCC) (Manassas, VA, USA) were used for this study. The representative Gram-positive bacteria were as follows: Staphylococcus aureus ATCC 25923, Staphylococcus aureus ATCC 29213, Staphylococcus aureus ATCC 43300, Staphylococcus epidermidis ATCC 12228, Enterococcus faecalis ATCC 29212, Micrococcus luteus ATCC 10240, Bacillus subtilis ATCC 6633 and Bacillus cereus ATCC 10876. While, those of Gram-negative bacteria were as follows: Bordetella bronchiseptica ATCC 4617, Escherichia coli ATCC 25922, Klebsiella pneumoniae ATCC 13883, Proteus mirabilis ATCC 12453, Salmonella Typhimurium ATCC 14028 and Pseudomonas aeruginosa ATCC 9027. Moreover, the following fungi belonging to yeasts were used: Candida albicans ATCC 10231, Candida albicans ATCC 2091, Candida parapsilosis ATCC 22019, Candida glabrata ATCC 90030 and Candida krusei ATCC 14243.
(§4) The new compounds WZ1–WZ4 were assayed for both antibacterial and antifungal activity using the broth microdilution method in accordance with the European Committee on Antimicrobial Susceptibility Testing (EUCAST) and Clinical and Laboratory Standards Institute (CLSI) guidelines. The microorganisms were grown at 35 °C for 18–24 h on appropriate media (nutrient agar and Sabouraud for bacteria and fungi, respectively) (BioMaxima S.A., Lublin, Poland). Next, microbial suspensions with an optical density of 0.5 McFarland standard scale (in sterile 0.85% NaCl) were prepared. In turn, the tested compounds were initially diluted at 50 mg/mL in dimethyl sulfoxide (DMSO) and the broth microdilution method was used to assess their minimum inhibitory concentrations (MICs). For these studies, selective broth Mueller-Hinton (MH) (BioMaxima S.A., Lublin, Poland) and RPMI (Roswell Park Memorial Institute) 1640 with MOPS (3-(N-Morpholino)propanesulfonic acid) (Sigma-Aldrich Chemicals, St. Louis, MO, USA) were used for bacteria and fungi, respectively. The antimicrobial effect of compounds WZ1–WZ4 was determined in the concentration range from 2000 to 0.98 µg/mL.
(§5) Then, the microbial suspensions were introduced into each well of the microplate and incubated for 18–24 h at 35 °C. […] The reference drugs ciprofloxacin or vancomycin (against bacteria) and nystatin (against fungi) (Sigma-Aldrich Chemicals, St. Louis, MO, USA) were also used. Next, the values of the minimum bactericidal concentration (MBC) and minimum fungicidal concentration (MFC) of WZ1–WZ4 were assessed. For this purpose, the cultures from each MIC determination well were transferred to a suitable solid medium and incubated under appropriate conditions. The lowest concentrations of compounds without microbial growth were read as MBC or MFC. The studies were performed in triplicate and representative data were gathered.
(§6) In turn, the MBC/MIC or MFC/MIC ratios were used to assess bactericidal/fungicidal (MBC/MIC or MFC/MIC ≤ 4) and bacteriostatic/fungistatic (MBC/MIC or MFC/MIC > 4) effect of these compounds [93].

[5] = system: Bacillus subtilis ATCC 6633; test: Broth microdilution antimicrobial activity; type: cell-based; details: for MBC / MIC: ATCC6633
Description: as §3, §4, §5, §6

CNC(=S)NNS(=O)(=O)c1ccccc1 [WZ4, 2-(Benzenesulfonyl)-N-Methylhydrazine-1-Carbothioamide]
decrease in viability ([1]; 24 h, across 10–500 µM): 21–56% | decrease in viability ([1]; 48 h, 1 µM): ~ 16% | decrease in viability ([1]; 48 h, across 1–500 µM): 16–82% | TI after 24h ([1]; 24 h): 1.653 | TI after 48h ([1]; 48 h): 15.763 | TI after 24h (PC3 (prostate cancer); 24 h): 0.920 and < 1 | decrease in viability (PC3 (prostate cancer); PC3, 24 h, 50 µM): ~ 27% | decrease in viability (PC3 (prostate cancer); PC3, 48 h, 200 µM): ~ 32% | decrease in viability (WS1 (fibroblasts); 24 h, all concentrations tested (1–500 µM)): 10–52% | concentration at which a statistically significant decrease in viability was observed (WS1 (fibroblasts); 24 h): 1 to 500 µM | decrease in viability (WS1 (fibroblasts); 48 h, 200 µM): ~ 15% | decrease in viability ([2]; 24 h, 1 µM): ~ 7% | decrease in viability ([2]; 24 h, across 1–500 µM): 7–84% | decrease in viability ([2]; 48 h, 1 µM): ~ 12% | decrease in viability ([2]; 48 h, across 1–500 µM): 12–92% | TI after 24h ([2]; 24 h): 4.537 | TI after 48h ([2]; 48 h): 7.390 | decrease in viability (Du145 (prostate cancer); DU145, 48 h, 1 µM): ~ 10% | decrease in viability (Du145 (prostate cancer); Du145, 24 h, 1 µM): ~ 10% | concentration at which a statistically significant decrease in viability was observed (Du145 (prostate cancer); Du145, 24 h): 1 to 500 µM | concentration at which a statistically significant decrease in viability was observed (Du145 (prostate cancer); Du145, 48 h): 1 to 500 µM | TI after 48h (Du145 (prostate cancer); IC50 WS1 / IC50 DU145, 48 h): 1.272 and > 1 | decrease in viability ([3]; HepG2, 24 h, 1 µM): ~ 4% | decrease in viability ([3]; HepG2, 24 h, 200 µM): ~ 18% | decrease in viability ([3]; HepG2, 48 h, 1 µM): ~ 3% | viability (reduced to) ([3]; HepG2, 48 h, 50 µM): ~ 69% | MFC/MIC [4]: 8 | MFC [4]: 1000 µg/mL (≈ 4080 µM) | MIC [4]: 125 µg/mL (≈ 510 µM) | MBC/MIC [5]: 16 | MBC [5]: 2000 µg/mL (≈ 8150 µM) | MIC [5]: 125 µg/mL (≈ 510 µM)

CCCCCCNC(=S)NNS(=O)(=O)c1ccccc1 [WZ3, 2-(Benzenesulfonyl)-N-Hexylhydrazine-1-Carbothioamide]
decrease in viability ([1]; 24 h, 1 µM): ~ 22% | decrease in viability ([1]; 24 h, 200 µM): ~ 22% | decrease in viability ([1]; 48 h, 1 µM): ~ 48% | TI after 24h ([1]; 24 h): 0.078 | TI after 48h ([1]; 48 h): 115.134 | TI after 24h (PC3 (prostate cancer); 24 h): 2.291 | viability (reduced to) (PC3 (prostate cancer); PC3, 24 h, 50 µM): ~ 76% | decrease in viability (PC3 (prostate cancer); PC3, 48 h, 200 µM): ~ 11% | decrease in viability (WS1 (fibroblasts); 24 h, 1 µM): ~ 12% | concentration at which a statistically significant decrease in viability was observed (WS1 (fibroblasts); 24 h): 1 to 500 µM | decrease in viability (WS1 (fibroblasts); 48 h, 500 µM): ~ 64% | concentration at which a statistically significant decrease in viability was observed (WS1 (fibroblasts); 48 h): no significant change in viability | decrease in viability ([2]; 24 h, 1 µM): ~ 9% | decrease in viability ([2]; 48 h, 1 µM): ~ 9% | TI after 24h ([2]; 24 h): 1.169 | TI after 48h ([2]; 48 h): 1.284 | decrease in viability (Du145 (prostate cancer); Du145, 24 h, 200 µM): ~ 19% | decrease in viability (Du145 (prostate cancer); Du145, 48 h, 50 µM): ~ 6% | TI after 24h (Du145 (prostate cancer); IC50 WS1 / IC50 DU145, 24 h): 0.476 | decrease in viability ([3]; HepG2, 24 h, 200 µM): ~ 31% | decrease in viability ([3]; HepG2, 48 h, 1 µM): ~ 7% | TI after 24h ([3]; IC50 WS1 / IC50 HepG2, 24 h): 1.701 | TI after 48h ([3]; IC50 WS1 / IC50 HepG2, 48 h): 2.426 | MFC/MIC [4]: 1 | MFC [4]: 2000 µg/mL (≈ 6340 µM) | MIC [4]: 2000 µg/mL (≈ 6340 µM) | MBC/MIC [5]: 4 | MBC [5]: 500 µg/mL (≈ 1580 µM) | MIC [5]: 125 µg/mL (≈ 396 µM)

Source: paper PMC10747733, “N-Substituted 2-(Benzenosulfonyl)-1-Carbotioamide Derivatives Exert Antimicrobial and Cytotoxic Effects via Aldehyde Dehydrogenase Pathway: Synthesis, In Silico and In Vitro Studies” (Pharmaceuticals, 2023)
